In US11363816B2, “4-amino-6-(heterocyclic)picolinates and 6-amino-2-(heterocyclic)pyramidine-4-carboxylates and their use as herbicides” (Dow AgroSciences LLC, priority 2017, dated 2022):

Legend:
Assay type in all cases: in vivo
[1] = tested on: CHEAL=Chenopodium album L. (common lambsquarters); assay: Postemergence field trial, Nisku, Alberta, Canada
Experimental: (§1) Field trials were established in Canada (in Ellerslie, Alberta; Nisku, Alberta and Hanley, Saskatchewan) to evaluate the efficacy of Compound 5, Compound 6, and Compound 7. Trials were designed as randomized complete blocks with four replicates. Trials were established in spring wheat with natural weed population with plot sizes of 2-3 meters (m) by 8-10 m (width×length). The crops were grown using normal cultural practices for fertilization, seeding, and maintenance to ensure good growth of the crop.
(§2) All herbicide treatments were applied post-emergence with applications made to the crops at BBCH (Phenological development stages of a plant) 14 to 22 growth stage. Herbicides were applied with backpack or bicycle sprayers using carbon dioxide (CO2) as a propellant. The sprayers utilized flat fan air-induction spray nozzles calibrated to deliver a uniform spray pattern that provided thorough coverage of the foliage using a 100 L/ha spray volume. All treatments were applied with methylated seed oil (MSO) at 1.25% v/v. Phytotoxicity to the weeds was assessed visually at several intervals after application as percent overall control, compared to an untreated control plot. In general, four replicates were assessed for each treatment. All treatment results are an average of four replicates.
(§3) Compound 5, Compound 6 and Compound 7 were applied as emulsifiable concentrate (EC) formulations at 100 g ae/L EC, respectively.

[2] = tested on: STEME=Stellaria media (L.) Vill. (common chickweed); assay: Postemergence field trial, Nisku, Alberta, Canada
Experimental: as §1, §2, §3

[3] = tested on: PAPRH=Papaver rhoeas L. (common poppy); assay: Postemergence field trial, Granon, Spain (Table 5)
Experimental: (§4) Field trials were established in Spain (Banares and Granon) and Germany (Bielefeld) to evaluate the efficacy of Compound 5, Compound 6, and Compound 7. Trials were designed as randomized complete blocks with three to four replicates. Trials were established in winter wheat with natural weed population with plot sizes of 2-2.5 meters (m) by 6-8 m (width×length). The crops were grown using normal cultural practices for fertilization, seeding, and maintenance to ensure good growth of the crop. All herbicide treatments were applied post-emergence with applications made to the crops at the BBCH 21 to 23 growth stage. Herbicides were applied with backpack or bicycle sprayers using air as a propellant. The sprayers utilized flat fan air-induction spray nozzles calibrated to deliver a uniform spray pattern that provided thorough coverage of the foliage using a 200 L/ha spray volume. All treatments were applied with methylated seed oil (MSO) at 1.25% v/v. Phytotoxicity to the weeds was assessed visually at several intervals after application as percent overall control, compared to an untreated control plot. In general, three to four replicates were assessed for each treatment. All treatment results are an average of three or four replicates. Compound 5, Compound 6, and Compound 7 were applied as emulsifiable concentrate (EC) formulations at 100 g ae/L EC, respectively.

[4] = tested on: VERHE=Veronica hederifolia (ivyleaved speedwell); assay: Postemergence field trial, Granon, Spain (Table 5)
Experimental: as §4

[5] = tested on: FUMOF=Fumaria officinalis (common fumitory); assay: Postemergence field trial, Banares, Spain
Experimental: as §4

[6] = tested on: PAPRH=Papaver rhoeas L. (common poppy); assay: Postemergence field trial, Banares, Spain
Experimental: as §4

[7] = tested on: VERHE=Veronica hederifolia (ivyleaved speedwell); assay: Postemergence field trial, Banares, Spain
Experimental: as §4

[8] = tested on: PAPRH=Papaver rhoeas L. (common poppy); assay: Postemergence field trial, Granon, Spain (Table 7)
Experimental: as §4

[9] = tested on: SINAR=Sinapis arvensis L. (wild mustard); assay: Postemergence field trial, Granon, Spain (Table 7)
Experimental: as §4

[10] = tested on: CENCY=Centaurea cyanus (cornflower); assay: Postemergence field trial, Bielefed, Germany
Experimental: as §4

[11] = tested on: PAPRH=Papaver rhoeas L. (common poppy); assay: Postemergence field trial, Bielefed, Germany
Experimental: as §4

Compound | Percent (%) Visual Control CHEAL 51DAAA ([1]; 10 g ae/ha) | Percent (%) Visual Control CHEAL 51DAAA ([1]; 20 g ae/ha) | Percent (%) Visual Control CHEAL 51DAAA ([1]; 40 g ae/ha) | Percent (%) Visual Control STEME 28DAAA ([2]; 10 g ae/ha) | Percent (%) Visual Control STEME 51DAAA ([2]; 10 g ae/ha) | Percent (%) Visual Control STEME 28DAAA ([2]; 20 g ae/ha) | Percent (%) Visual Control STEME 51DAAA ([2]; 20 g ae/ha) | Percent (%) Visual Control STEME 28DAAA ([2]; 40 g ae/ha) | Percent (%) Visual Control STEME 51DAAA ([2]; 40 g ae/ha) | Percent (%) Visual Control PAPRH 84DAAA ([3]; 5 g ae/ha) | Percent (%) Visual Control PAPRH 84DAAA ([3]; 10 g ae/ha) | Percent (%) Visual Control PAPRH 84DAAA ([3]; 20 g ae/ha) | Percent (%) Visual Control VERHE 34DAAA ([4]; 5 g ae/ha) | Percent (%) Visual Control VERHE 34DAAA ([4]; 10 g ae/ha) | Percent (%) Visual Control VERHE 34DAAA ([4]; 20 g ae/ha) | Percent (%) Visual Control FUMOF 83DAAA ([5]; 5 g ae/ha) | Percent (%) Visual Control FUMOF 83DAAA ([5]; 10 g ae/ha) | Percent (%) Visual Control FUMOF 83DAAA ([5]; 20 g ae/ha) | Percent (%) Visual Control PAPRH 66DAAA ([6]; 5 g ae/ha) | Percent (%) Visual Control PAPRH 66DAAA ([6]; 10 g ae/ha) | also measured
C#CCOC(=O)c1nc(-c2ccc3cc[nH]c3c2F)c(F)c(N)c1Cl [Compound 5, prop-2-yn-1-yl 4-amino-3-chloro-5-fluoro-6-(7-fluoro-1H-indol-6-yl)picolinate] | 98% | 96.8% | 97.3% | 88% | 88.3% | 96% | 92.5% | 99% | 93.8% | 66.7% | 78.3% | 90.7% | 60% | 77% | 85% | 41.7% | 65% | 93.3% | 57.7% | 70% | Percent (%) Visual Control PAPRH 66DAAA ([6]; 20 g ae/ha): 90%; Percent (%) Visual Control VERHE 66DAAA ([7]; 5 g ae/ha): 60%; Percent (%) Visual Control VERHE 66DAAA ([7]; 10 g ae/ha): 77.7%; Percent (%) Visual Control VERHE 66DAAA ([7]; 20 g ae/ha): 91%; Percent (%) Visual Control PAPRH 68DAAA ([8]; 5 g ae/ha): 58.3%; Percent (%) Visual Control PAPRH 68DAAA ([8]; 10 g ae/ha): 72.7%; Percent (%) Visual Control PAPRH 68DAAA ([8]; 20 g ae/ha): 79.3%; Percent (%) Visual Control SINAR 48DAAA ([9]; 5 g ae/ha): 85%; Percent (%) Visual Control SINAR 48DAAA ([9]; 10 g ae/ha): 94.8%; Percent (%) Visual Control SINAR 48DAAA ([9]; 20 g ae/ha): 95%; Percent (%) Visual Control CENCY 85DAAA ([10]; 5 g ae/ha): 65%; Percent (%) Visual Control CENCY 85DAAA ([10]; 10 g ae/ha): 87.5%; Percent (%) Visual Control CENCY 85DAAA ([10]; 20 g ae/ha): 95%; Percent (%) Visual Control PAPRH 85DAAA ([11]; 5 g ae/ha): 92.5%; Percent (%) Visual Control PAPRH 85DAAA ([11]; 10 g ae/ha): 97.3%; Percent (%) Visual Control PAPRH 85DAAA ([11]; 20 g ae/ha): 98.8%
N#CCOC(=O)c1nc(-c2ccc3cc[nH]c3c2F)c(F)c(N)c1Cl [Compound 6, cyanomethyl 4-amino-3-chloro-5-fluoro-6-(7-fluoro-1H-indol-6-yl)picolinate] | 98% | 98% | 98% | 99% | 87.5% | 96% | 87.8% | 99% | 94.5% | 68.7% | 81% | 90% | 55% | 77.7% | 86% | 41.7% | 69.3% | 96% | 60% | 75% | Percent (%) Visual Control PAPRH 66DAAA ([6]; 20 g ae/ha): 91%; Percent (%) Visual Control VERHE 66DAAA ([7]; 5 g ae/ha): 60%; Percent (%) Visual Control VERHE 66DAAA ([7]; 10 g ae/ha): 81.7%; Percent (%) Visual Control VERHE 66DAAA ([7]; 20 g ae/ha): 91%; Percent (%) Visual Control PAPRH 68DAAA ([8]; 5 g ae/ha): 55%; Percent (%) Visual Control PAPRH 68DAAA ([8]; 10 g ae/ha): 69.3%; Percent (%) Visual Control PAPRH 68DAAA ([8]; 20 g ae/ha): 85.3%; Percent (%) Visual Control SINAR 48DAAA ([9]; 5 g ae/ha): 82.7%; Percent (%) Visual Control SINAR 48DAAA ([9]; 10 g ae/ha): 95%; Percent (%) Visual Control SINAR 48DAAA ([9]; 20 g ae/ha): 95.2%; Percent (%) Visual Control CENCY 85DAAA ([10]; 5 g ae/ha): 60%; Percent (%) Visual Control CENCY 85DAAA ([10]; 10 g ae/ha): 92.5%; Percent (%) Visual Control CENCY 85DAAA ([10]; 20 g ae/ha): 97%; Percent (%) Visual Control PAPRH 85DAAA ([11]; 5 g ae/ha): 94.5%; Percent (%) Visual Control PAPRH 85DAAA ([11]; 10 g ae/ha): 97.3%; Percent (%) Visual Control PAPRH 85DAAA ([11]; 20 g ae/ha): 99.8%
Nc1c(F)c(-c2ccc3cc[nH]c3c2F)nc(C(=O)OCc2ccccc2)c1Cl [Compound 7, benzyl 4-amino-3-chloro-5-fluoro-6-(7-fluoro-1H-indol-6-yl)picolinate, reference compound] | 98% | 98% | 98% | 76.7% | 76.3% | 76.7% | 80% | 99% | 85.8% | 59.3% | 68.3% | 80.3% | 51.7% | 58.3% | 79.3% | 26.7% | 45% | 58.3% | 53.3% | 62.7% | Percent (%) Visual Control PAPRH 66DAAA ([6]; 20 g ae/ha): 75%; Percent (%) Visual Control VERHE 66DAAA ([7]; 5 g ae/ha): 50%; Percent (%) Visual Control VERHE 66DAAA ([7]; 10 g ae/ha): 56%; Percent (%) Visual Control VERHE 66DAAA ([7]; 20 g ae/ha): 70%; Percent (%) Visual Control PAPRH 68DAAA ([8]; 5 g ae/ha): 45%; Percent (%) Visual Control PAPRH 68DAAA ([8]; 10 g ae/ha): 60%; Percent (%) Visual Control PAPRH 68DAAA ([8]; 20 g ae/ha): 74.3%; Percent (%) Visual Control SINAR 48DAAA ([9]; 5 g ae/ha): 73.3%; Percent (%) Visual Control SINAR 48DAAA ([9]; 10 g ae/ha): 80.7%; Percent (%) Visual Control SINAR 48DAAA ([9]; 20 g ae/ha): 89.3%; Percent (%) Visual Control CENCY 85DAAA ([10]; 5 g ae/ha): 32.5%; Percent (%) Visual Control CENCY 85DAAA ([10]; 10 g ae/ha): 53.8%; Percent (%) Visual Control CENCY 85DAAA ([10]; 20 g ae/ha): 62.5%; Percent (%) Visual Control PAPRH 85DAAA ([11]; 5 g ae/ha): 66.3%; Percent (%) Visual Control PAPRH 85DAAA ([11]; 10 g ae/ha): 78.8%; Percent (%) Visual Control PAPRH 85DAAA ([11]; 20 g ae/ha): 80%
